The series is described as follows: Determination of the log P values by HPLC (formic acid method). The class given is physicochemical. The following applies: reversed-phase column (C 18), acidic range (pH 3.4), 55° C. Here is the method:
1) Description of Method for Determination of the Log P Values (Formic Acid Method)
Eluents for determination in the acidic range (pH 3.4):
Eluent A: acetonitrile+1 ml of formic acid/liter. Eluent B: water+0.9 ml of formic acid/liter.
The lambda max values were determined in the maxima of the chromatographic signals using the UV spectra from 200 nm to 400 nm.

The mark [1] stands for this setting: reversed-phase HPLC column (C 18).

The chromatographic logP is a lipophilicity value derived from retention on a column. A low value points to a more hydrophilic compound. One may read the log P as the decadic logarithm of the partition coefficient of the neutral form, usually between octanol and water. A low value points to lower lipophilicity.

`Nc1ccn(-c2cccc(Cl)c2Cl)n1` [1-(2,3-Dichlorophenyl)-1H-pyrazole-3-amine] came in with a chromatographic logP under setting [1] of 1.97.
On the same count and under the same terms, the figure for `Nc1ccn(-c2cccc(F)c2F)n1` [1-(2,3-Difluorophenyl)-1H-pyrazole-3-amine] is 1.56; for `Cc1nc(F)c(-n2ccc(N)n2)cc1F` [1-(2,5-Difluoro-6-methylpyridin-3-yl)-1H-pyrazole-3-amine] it is 1.5; for `Nc1ccn(-c2cc(F)ccc2F)n1` [1-(2,5-Difluorophenyl)-1H-pyrazole-3-amine] it is 1.58.
`Nc1ccn(-c2cc(F)cnc2F)n1` [1-(2,5-difluoropyridin-3-yl)-1H-pyrazole-3-amine]: under setting [1], the chromatographic logP amounted to 1.15.
Still for that read-out and setting: then `Nc1ccn(-c2c(Cl)cccc2Cl)n1` [1-(2,6-Dichlorophenyl)-1H-pyrazole-3-amine], with 1.47.
Compound `Nc1ccn(-c2c(F)cccc2F)n1` [1-(2,6-Difluorophenyl)-1H-pyrazole-3-amine] registered a chromatographic logP of 1.13.
Under setting [1], `Cc1cccc(C)c1-n1ccc(N)n1` [1-(2,6-Dimethylphenyl)-1H-pyrazole-3-amine] returned a chromatographic logP of 0.62.
The same measure, in the same setting: the figure for `Cc1ccc(-n2ccc(N)n2)c(Cl)c1` [1-(2-Chloro-4-methylphenyl)-1H-pyrazole-3-amine] is 1.85; for `CCOc1cccc(Cl)c1-n1ccc(N)n1` [1-(2-Chloro-6-ethoxyphenyl)-1H-pyrazole-3-amine] it is 2.13; for `Nc1nn(-c2ccccc2Cl)c2ccccc12` [1-(2-Chlorophenyl)-1H-indazole-3-amine] it is 2.32.
The same measure, in the same setting: the figure for `Nc1ccn(-c2cccnc2Cl)n1` [1-(2-Chloropyridin-3-yl)-1H-pyrazole-3-amine] is 0.62.
Still for that read-out and setting: then `CCOc1cccc(F)c1-n1ccc(N)n1` [1-(2-Ethoxy-6-fluorophenyl)-1H-pyrazole-3-amine], with 1.47; and `CCOc1c(F)cccc1-n1ccc(N)n1` [1-(2-ethoxy-3-fluorophenyl)-1H-pyrazole-3-amine], with 2.04.
As for `Nc1ccn(-c2nc(F)c(F)cc2F)n1` [1-(3,5,6-Trifluoropyridin-2-yl)-1H-pyrazole-3-amine], under setting [1], the chromatographic logP worked out at 1.15.
The same measure, in the same setting: then `Cc1nc(-n2ccc(N)n2)c(F)cc1F` [1-(3,5-Difluoro-6-methylpyridin-2-yl)-1H-pyrazole-3-amine], with 1.25.
With `Nc1ccn(-c2ncc(F)cc2F)n1` [1-(3,5-Difluoropyridin-2-yl)-1H-pyrazole-3-amine], the chromatographic logP is 0.81.
In the case of `Nc1nn(-c2ncc(F)cc2F)c2ccc(F)cc12` [1-(3,5-Difluoropyridin-2-yl)-5-fluoro-1H-indazole-3-amine], the chromatographic logP under setting [1] turned out to be 2.09.
For `CCOc1c(Cl)cccc1-n1ccc(N)n1` [1-(3-Chloro-2-ethoxyphenyl)-1H-pyrazole-3-amine], under setting [1], the chromatographic logP worked out at 2.13.
The same measure, in the same setting: then `Nc1ccn(-c2cccc(Cl)c2F)n1` [1-(3-Chloro-2-fluorophenyl)-1H-pyrazole-3-amine], with 1.9.
On the same count and under the same terms, then `Nc1ccn(-c2ncc(F)cc2Cl)n1` [1-(3-Chloro-5-fluoropyridin-2-yl)-1H-pyrazole-3-amine], with 0.98; and `Nc1ccn(-c2nccc(I)c2F)n1` [1-(3-Fluoro-4-iodopyridin-2-yl)-1H-pyrazole-3-amine], with 1.38; and `Nc1ccn(-c2nccnc2F)n1` [1-(3-Fluoropyrazin-2-yl)-1H-pyrazole-3-amine], with 0.49.
In turn, `Nc1ccn(-c2ncnc(F)c2F)n1` [1-(5,6-Difluoropyrimidin-4-yl)-1H-pyrazole-3-amine] came in with a chromatographic logP under setting [1] of 0.86.
On the same count and under the same terms, then `Nc1ccn(-c2ncc(Cl)cc2F)n1` [1-(5-Chloro-3-fluoropyridin-2-yl)-1H-pyrazole-3-amine], with 1.27.
Same read-out and setting: then `Nc1ccn(-c2cncc(F)n2)n1` [1-(6-Fluoropyrazin-2-yl)-1H-pyrazole-3-amine], with 0.9; and `Nc1cnn(-c2ncc(Cl)cc2Cl)n1` [2-(3,5-Dichloropyridin-2-yl)-2H-1,2,3-triazole-4-amine], with 1.38; and `Nc1cnn(-c2ncccc2F)n1` [2-(3-Fluoropyridin-2-yl)-2H-1,2,3-triazole-4-amine], with 0.4.
On the same count and under the same terms, then `Nc1cnn(-c2ncc(C(F)(F)F)cc2Cl)n1` [2-[3-Chloro-5-(trifluoromethyl)pyridin-2-yl]-2H-1,2,3-triazole-4-amine], with 1.74; and `Nc1cnn(-c2ccc(C(F)(F)F)cn2)n1` [2-[5-(Trifluoromethyl)pyridin-2-yl]-2H-1,2,3-triazole-4-amine], with 1.53.
As for `O=C(O)c1ccccc1C(=O)Nc1ccn(-c2c(F)cc([N+](=O)[O-])cc2F)n1` [2-{[1-(2,6-Difluoro-4-nitrophenyl)-1H-pyrazol-3-yl]carbamoyl}benzoic acid], the chromatographic logP under setting [1] is 1.85.
On the same count and under the same terms, the figure for `N#Cc1cncnc1-n1ccc(N)n1` [4-(3-Amino-1H-pyrazol-1-yl)pyrimidine-5-carbonitrile] is 0.59.
On the same count and under the same terms, the figure for `Nc1nn(-c2ccccc2Cl)cc1Br` [4-Bromo-1-(2-chlorophenyl)-1H-pyrazole-3-amine] is 2.23; for `Nc1nn(-c2ccccc2Cl)cc1Cl` [4-Chloro-1-(2-chlorophenyl)-1H-pyrazole-3-amine] it is 2.14.
The same measure, in the same setting: the figure for `Nc1nn(-c2ccccc2Cl)cc1I` [4-Iodo-1-(2-chlorophenyl)-1H-pyrazole-3-amine] is 2.36.
`COc1ccccc1-n1ccc(NC(=O)c2ccccc2Br)n1` [Compound I-1-2]: the “log P” value is given as 2.69.
On the same count and under the same terms, then `COc1ccccc1-n1ccc(NC(=O)c2cc(C)oc2C)n1` [Compound I-1-3], with 2.87.
`O=C(Nc1ccn(-c2ccccc2C(F)(F)F)n1)c1ccccc1Cl` [Compound I-1-4]: the “log P” value is 2.92.
Same read-out and setting: the figure for `O=C(Nc1ccn(-c2ccccc2C(F)(F)F)n1)c1ccccc1C(F)(F)F` [Compound I-1-6] is 2.75.
On the same count and under the same terms, the figure for `O=C(Nc1ccn(-c2ccccc2C(F)(F)F)n1)c1ccnn1C(F)F` [Compound I-1-7] is 3.05.
On the same count and under the same terms, the figure for `N#Cc1ccccc1-n1ccc(NC(=O)c2ccccc2Cl)n1` [Compound I-1-8] is 2.38; for `N#Cc1ccccc1-n1ccc(NC(=O)c2ccccc2C(F)(F)F)n1` [Compound I-1-9] it is 2.55.
For `Cc1ccccc1C(=O)Nc1ccn(-c2ccccc2Cl)n1` [Compound I-1-11], the “log P” value was determined as 2.86.
As for `CCc1ccccc1C(=O)Nc1ccn(-c2ccccc2Cl)n1` [Compound I-1-12], the “log P” value stood at 3.30.
Same read-out and setting: the figure for `O=C(Nc1ccn(-c2ccccc2Cl)n1)c1ccccc1C(F)F` [Compound I-1-13] is 3.03.
On the same count and under the same terms, then `O=C(Nc1ccn(-c2ccccc2Cl)n1)c1ccccc1C(F)(F)F` [Compound I-1-14], with 2.96; and `O=C(Nc1ccn(-c2ccccc2Cl)n1)c1ccccc1F` [Compound I-1-19], with 2.89.
Same read-out and setting: the figure for `C#CCN(C(=O)c1ccccc1Cl)c1ccn(-c2ccccc2Cl)n1` [Compound I-1-23] is 3.25; for `O=C(c1ccccc1Cl)N(CC1CC1)c1ccn(-c2ccccc2Cl)n1` [Compound I-1-24] it is 3.85.
Regarding `C=CCN(C(=O)c1ccccc1Cl)c1ccn(-c2ccccc2Cl)n1` [Compound I-1-26], the “log P” value worked out at 3.56.
Compound `O=C(Nc1nn(-c2ccccc2Cl)cc1F)c1ccccc1Cl` [Compound I-1-27, 2-Chloro-N-[1-(2-chlorophenyl)-4-fluoro-1H-pyrazol-3-yl]benzamide] showed a chromatographic logP under setting [1] of 2.7.
As to `O=C(Nc1nn(-c2ccccc2Cl)cc1Cl)c1ccccc1Cl` [Compound I-1-28], the “log P” value is 2.88.
Still for that read-out and setting: the figure for `O=C(Nc1nn(-c2ccccc2Cl)cc1I)c1ccccc1Cl` [Compound I-1-30] is 3.01; for `Cc1cc(NC(=O)c2ccccc2Cl)nn1-c1ccccc1Cl` [Compound I-1-31] it is 2.45; for `O=C(Nc1ccn(-c2ccccc2Cl)n1)c1c(F)cccc1F` [Compound I-1-36] it is 2.65.
Still for that read-out and setting: the figure for `Cc1cccnc1C(=O)Nc1ccn(-c2ccccc2Cl)n1` [Compound I-1-38] is 3.24.
On the same count and under the same terms, the figure for `O=C(Nc1ccn(-c2ccccc2Cl)n1)c1ncccc1Cl` [Compound I-1-40] is 2.79.
With `Cc1ncccc1C(=O)Nc1ccn(-c2ccccc2Cl)n1` [Compound I-1-41], the “log P” value was 1.44.
On the same count and under the same terms, then `O=C(Nc1ccn(-c2ccccc2Cl)n1)c1cccnc1C(F)(F)F` [Compound I-1-42], with 2.48.
The same measure, in the same setting: then `O=C(Nc1ccn(-c2ccccc2Cl)n1)c1nccnc1C(F)(F)F` [Compound I-1-44], with 2.74; and `Cc1cc(C(=O)Nc2ccn(-c3ccccc3Cl)n2)c(C)o1` [Compound I-1-45], with 3.05; and `Cc1ccsc1C(=O)Nc1ccn(-c2ccccc2Cl)n1` [Compound I-1-46], with 2.96.
Still for that read-out and setting: the figure for `O=C(Nc1ccn(-c2ccccc2Cl)n1)c1ccsc1I` [Compound I-1-47] is 3.05; for `Cn1nc(C(F)F)c(C(=O)Nc2ccn(-c3ccccc3Cl)n2)c1F` [Compound I-1-49] it is 2.59; for `O=C(Nc1ccn(-c2ccccc2Br)n1)c1ccccc1C(F)(F)F` [Compound I-1-50] it is 3.07.
For the compound `O=C(Nc1ccn(-c2ccccc2Br)n1)c1ccccc1Br` [Compound I-1-52], the log partition coefficient (log P) is 2.86.
Same read-out and setting: then `O=C(Nc1ccn(-c2ccccc2Br)n1)c1ncccc1C(F)(F)F` [Compound I-1-54], with 2.99; and `O=C(Nc1ccn(-c2ccccc2Br)n1)c1cccnc1C(F)(F)F` [Compound I-1-56], with 2.54.
